Reference: patent US4395399A, “Glycopeptides and method for preparing same” (Institut Bioorganicheskoi Khimii Imeni M.M. Shemyakina …, priority 1977, dated 1983)
Read-outs that look alike come from different tables or passages of the source. Where a SMILES comes first, the peptide text is derived from it. [ ]: non-standard residue; d: D form.

Tested on: 8-day Krocker sarcoma (S-180)
Settings: for Necrotic reaction shown after 24 h, number of animals / Death of animals / Inhibition of the tumor growth, % of the control: intravenous; for Necrotic reaction shown after 24 h, number of animals: mice with 8-day sarcoma S-180, 24 h; for Death of animals / Necrosis caused by constituent components of the glycopeptides: mice with sarcoma S-180; for Inhibition of the tumor growth, % of the control: tumor volume or weight after 4-5 days
[1] = single intravenous dose 100 mg/kg

Row | Compound | Necrotic reaction shown after 24 h, number of animals (dose 50 mg/kg) | Inhibition of the tumor growth, % of the control (dose 50 mg/kg) | Necrotic reaction shown after 24 h, number of animals (dose 100 mg/kg) | Death of animals (dose 100 mg/kg) | Inhibition of the tumor growth, % of the control (dose 100 mg/kg) | Necrotic reaction shown after 24 h, number of animals (dose 250 mg/kg) | Death of animals (dose 250 mg/kg) | Inhibition of the tumor growth, % of the control (dose 250 mg/kg) | Necrosis caused by constituent components of the glycopeptides | other results
1 | CC(=O)NC1C(OC2C(CO)OC(O)C(NC(C)=O)C2OC(C)C(=O)NC(C)C(=O)NC(CCC(=O)O)C(N)=O)OC(CO)C(O)C1O [Compound II, N-acetylglucosaminyl/1→4/N-acetylmuramyl-alanyl-D-isoglutamine] | 8/10 | 12 % of the control | 4/5 | 0 | 70 % of the control | – | – | – | – | Death of animals (dose 50 mg/kg): 0; Hemopoiesis [1]: not inhibited; Number of leukocytes [1]: substantially increased; Signs of toxicity [1]: no signs of toxicity are noticed; Test animals with selective necrosis of the tumor tissue covering substantially the entire tumor (single intravenous dose 100 mg/kg, 24 hours after administration): four out of five; Inhibition of the growth of the malignant tumor as compared to the control animals (single intravenous dose 100 mg/kg, after 5 days): 70%
2 | CC(=O)NC1C(OC2C(CO)OC(O)C(NC(C)=O)C2OC(C)C(=O)NC(C)C(=O)NC(CCC(=O)O)C(=O)O)OC(CO)C(O)C1O [III, N-acetylglucosaminyl/1→4/N-acetylmuramyl-alanyl-D-glutamic acid] | 4/10 | – | 3/5 | – | – | – | – | – | – | –
3 | CC(=O)N[C@H]1C(O[C@H]2[C@H](O[C@H](C)C(=O)O)[C@@H](NC(C)=O)C(O[C@H]3[C@H](O)[C@@H](NC(C)=O)C(O[C@H]4[C@H](O[C@H](C)C(=O)O)[C@@H](NC(C)=O)C(O)O[C@@H]4CO)O[C@@H]3CO)O[C@@H]2CO)O[C@H](CO)[C@@H](O)[C@@H]1O (stereo partly shown) [IX, N-acetylglucosaminyl /1→4/-N-acetylmuramyl/1→4/N-acetylglucosaminyl/1→4/N- acetylmuramic acid] | – | – | – | – | – | 0/10 | 0 | 0 % of the control | not caused | –
4 | CC(=O)N[C@H]1C(O)O[C@H](CO)[C@@H](O)[C@@H]1O (stereo partly shown) [VI, N-acetylglucosamine] | – | – | – | – | – | 0.5 | 0 | 0 % of the control | not caused | –
5 | CC(=O)N[C@H]1C(O)O[C@H](CO)[C@@H](O)[C@@H]1O[C@H](C)C(=O)O (stereo partly shown) [VII, N-acetylmuramic acid] | – | – | 0/8 | 0 | 37 % of the control | 0/8 | 25 | 52 % of the control | not caused | –
6 | CC(=O)N[C@H]1C(O[C@H]2[C@H](O[C@H](C)C(=O)O)[C@@H](NC(C)=O)C(O)O[C@@H]2CO)O[C@H](CO)[C@@H](O)[C@@H]1O (stereo partly shown) [VIII, N-acetylglucosaminyl/1→4/N-acetylmuramic acid] | – | – | 0/10 | 0 | 0 % of the control | 0/10 | 0 | 0 % of the control | not caused | –
7 | C[C@H](N)C(=O)N[C@H](CCC(=O)O)C(N)=O [X, Ala-D-Glu-NH2] (H-Ala-[dE]-NH2) | – | – | 0/10 | 0 | +28 % of the control | – | – | – | not caused | –
8 | C[C@H](N)C(=O)N[C@H](CCC(=O)O)C(=O)O [XI, Ala-D-Glu] (H-Ala-[dE]-OH) | – | – | 0/8 | 0 | 37.3 % of the control | – | – | – | not caused | –
9 | /1→4/-bis-[N-acetylglucosaminyl/1→4/N-acetylmuramyl-alanyl-D- isoglutamine] [V] | 3/5 | 66 % of the control | – | – | – | – | – | – | – | Death of animals (dose 50 mg/kg): 0
10 | Amide of N^ε [Alanyl-D-glutamyl-D-iso-asparaginyl]-lysyl-D-alanine [XII] | – | – | – | – | – | 0/5 | – | 0 % of the control | – | –
11 | N-acetyl-glucosaminyl/1→4/N-acetylmuramylalanine [Compound I] | 2/5 | 17 % of the control | 3/5 | 0 | 19 % of the control | – | – | – | – | Death of animals (dose 50 mg/kg): 0
12 | amide of N^ε -[N-acetylglucosaminyl/1→4/N-acetylmuramyl-alanyl-D-glutamyl-D-iso- asparaginyl]-lysyl-D-alanine [IV] | 3/5 | 23 % of the control | 3/5 | – | 41 % of the control | – | – | – | – | –
